Data from DBAASP.
In brackets after ≈: the same amount, converted by molar mass.

How the values were obtained:
Assay in all cases: ≥ marks a high value that may be exact or a test limit, other limits are often not marked, values filed in µg/mL are converted to µM
Staphylococcus aureus = tested on: Staphylococcus aureus
Candida albicans = tested on: Candida albicans
[1] = tested on: Staphylococcus aureus ATCC 25923
[2] = tested on: Escherichia coli ATCC 25922
Klebsiella pneumoniae = tested on: Klebsiella pneumoniae
[3] = tested on: Pseudomonas aeruginosa ATCC 9027
[4] = tested on: Staphylococcus aureus ATCC 6538
[5] = tested on: Enterococcus faecalis ATCC 29212
[6] = tested on: Staphylococcus aureus ATCC 29213
[7] = tested on: Acinetobacter baumannii ATCC 19606
Micrococcus luteus = tested on: Micrococcus luteus
[8] = tested on: Staphylococcus epidermidis
Pseudomonas aeruginosa = tested on: Pseudomonas aeruginosa
[9] = tested on: Pseudomonas aeruginosa ATCC 27853
[10] = tested on: Klebsiella pneumoniae ATCC 13883
Escherichia coli = tested on: Escherichia coli
[11] = tested on: Klebsiella pneumoniae ATCC 700603
Acinetobacter baumannii = tested on: Acinetobacter baumannii
[12] = tested on: Staphylococcus aureus KCTC 1621
[13] = tested on: Pseudomonas aeruginosa KCTC 1637
[14] = tested on: Staphylococcus epidermidis KCTC 1917
[15] = tested on: Escherichia coli KCTC 1682
[16] = tested on: Salmonella typhimurium KCTC 1926
[17] = tested on: Bacillus subtilis ATCC 6633
[18] = tested on: Candida albicans ATCC 10231

**Q.** Which MIC (Staphylococcus aureus) does the source give for `CC[C@H](C)[C@H](NC(=O)[C@H](CC(N)=O)NC(=O)[C@H](CCCCN)NC(=O)[C@H](CC(C)C)NC(=O)[C@H](Cc1ccccc1)NC(=O)[C@@H](NC(=O)[C@H](CCCCN)NC(=O)[C@H](Cc1c[nH]c2ccccc12)NC(=O)[C@H](CO)NC(=O)[C@H](C)N)C(C)C)C(=O)NCC(=O)N[C@@H](CCCCN)C(=O)N[C@@H](C)C(=O)N[C@@H](C)C(=O)NCC(=O)N[C@@H](CCCCN)C(=O)N[C@@H](C)C(=O)N[C@H](C(=O)N[C@@H](CC(C)C)C(=O)N[C@@H](CC(N)=O)C(=O)N[C@@H](CO)C(=O)N[C@H](C(=O)N[C@H](C(=O)N[C@@H](CC(=O)O)C(=O)N[C@@H](CCSC)C(=O)N[C@H](C(=O)N[C@@H](CC(N)=O)C(=O)N[C@@H](CCC(N)=O)C(N)=O)C(C)C)[C@@H](C)O)C(C)C)C(C)C` [ASWKVFLKNIGKAAGKAVLNSVTDMVNQ] here?
**A.** 2.68 µM (≈ 8.01 µg/mL)

**Q.** What about the MIC (Candida albicans) of the same compound?
**A.** 10.7 µM (≈ 32 µg/mL)

**Q.** And the MIC [1]?
**A.** 2.68 µM (≈ 8.01 µg/mL)

**Q.** What about the MIC [2] of the same compound?
**A.** 2.68 µM (≈ 8.01 µg/mL)

**Q.** And the MIC (Klebsiella pneumoniae)?
**A.** 10.7 µM (≈ 32 µg/mL)

**Q.** With `CC(C)C[C@H](NC(=O)[C@H](CCCCN)NC(=O)[C@H](CCCCN)NC(=O)[C@H](C)NC(=O)[C@H](CC(C)C)NC(=O)[C@H](CCCCN)NC(=O)[C@H](C)NC(=O)[C@H](CCCCN)NC(=O)[C@H](CCCCN)NC(=O)[C@H](C)NC(=O)[C@H](CC(C)C)NC(=O)[C@H](CCCCN)NC(=O)[C@H](CCCCN)NC(=O)[C@H](C)NC(=O)[C@@H](N)Cc1ccccc1)C(N)=O` [FAKKLAKKAKLAKKL] as the compound, how does the MIC [3] read?
**A.** 59.3 µM (≈ 99.9 µg/mL)

**Q.** What about the MIC [4] of the same compound?
**A.** 119 µM (≈ 200 µg/mL)

**Q.** For `CC(C)C[C@H](NC(=O)[C@H](CCCCN)NC(=O)[C@H](CC(C)C)NC(=O)[C@H](C)NC(=O)[C@H](CCCCN)NC(=O)[C@H](C)NC(=O)[C@H](CC(C)C)NC(=O)[C@H](CC(C)C)NC(=O)[C@H](CCCCN)NC(=O)[C@H](CCCCN)NC(=O)[C@H](C)NC(=O)[C@@H](N)Cc1ccccc1)C(N)=O` [FAKKLLAKALKL], which MIC [3] is on record?
**A.** 149 µM (≈ 200 µg/mL)

**Q.** What about the MIC [4] of the same compound?
**A.** > 149 µM

**Q.** How did the MIC [3] turn out when `CC(C)C[C@H](NC(=O)[C@H](C)NC(=O)[C@H](CCCCN)NC(=O)[C@H](CCCCN)NC(=O)[C@H](C)NC(=O)[C@H](CCCCN)NC(=O)[C@H](CCCCN)NC(=O)[C@H](CC(C)C)NC(=O)[C@H](C)NC(=O)[C@H](CCCCN)NC(=O)[C@H](CCCCN)NC(=O)[C@H](C)NC(=O)[C@H](CC(C)C)NC(=O)[C@H](C)NC(=O)[C@@H](N)Cc1ccccc1)C(N)=O` [FALAKKALKKAKKAL] was run?
**A.** 15.3 µM (≈ 25 µg/mL)

**Q.** And the MIC [4]?
**A.** 61.4 µM (≈ 99.9 µg/mL)

**Q.** For `CC(C)C[C@H](NC(=O)[C@H](C)NC(=O)[C@H](CCCCN)NC(=O)[C@H](CCCCN)NC(=O)[C@H](CC(C)C)NC(=O)[C@H](C)NC(=O)[C@H](CCCCN)NC(=O)[C@H](CC(C)C)NC(=O)[C@H](C)NC(=O)[C@H](CC(C)C)NC(=O)[C@H](C)NC(=O)[C@@H](N)Cc1ccccc1)C(N)=O` [FALALKALKKAL], which MIC [3] is on record?
**A.** 38.9 µM (≈ 50 µg/mL)

**Q.** What about the MIC [4] of the same compound?
**A.** 3.89 µM (≈ 5 µg/mL)

**Q.** With `CC(C)C[C@H](NC(=O)[C@@H](NC(=O)[C@H](CCCN=C(N)N)NC(=O)[C@H](CO)NC(=O)[C@H](CC(C)C)NC(=O)[C@H](C)NC(=O)[C@H](CC(N)=O)NC(=O)CNC(=O)[C@H](CC(C)C)NC(=O)[C@H](C)NC(=O)CNC(=O)[C@H](CC(C)C)NC(=O)[C@@H](N)Cc1ccccc1)C(C)C)C(N)=O` [FLGALGNALSRVL] as the compound, how does the MIC [5] read?
**A.** > 64 µM

**Q.** What about the MIC [6] of the same compound?
**A.** 32 µM (≈ 42.5 µg/mL)

**Q.** And the MIC [7]?
**A.** > 64 µM

**Q.** What about the MIC [2] of the same compound?
**A.** > 64 µM

**Q.** `CC[C@H](C)[C@H](NC(=O)[C@@H](NC(=O)[C@H](Cc1cnc[nH]1)NC(=O)[C@@H]1CCCN1C(=O)[C@@H](NC(=O)[C@H](CC(C)C)NC(=O)[C@H](CO)NC(=O)[C@H](CC(C)C)NC(=O)[C@@H](N)Cc1ccccc1)[C@@H](C)CC)C(C)C)C(=O)N[C@@H](CO)C(=O)N[C@@H](C)C(=O)N[C@H](C(=O)N1CCC[C@H]1C(=O)N[C@@H](Cc1cnc[nH]1)C(=O)N[C@H](C(=O)N[C@H](C(=O)N[C@@H](CC(N)=O)C(=O)N[C@@H](C)C(=O)N[C@@H](CC(C)C)C(=O)N[C@@H](CO)C(=O)N[C@@H](CC(N)=O)C(=O)N[C@@H](CC(C)C)C(N)=O)C(C)C)C(C)C)[C@@H](C)CC` [FLSLIPHVISAIPHVVNALSNL] was tested. Which MIC (Candida albicans) did it give?
**A.** > 218 µM

**Q.** What about the MIC [1] of the same compound?
**A.** > 218 µM

**Q.** What about the MIC [2] of the same compound?
**A.** > 218 µM

**Q.** And the MIC (Klebsiella pneumoniae)?
**A.** > 189 µM

**Q.** For `CC[C@H](C)[C@H](NC(=O)CNC(=O)[C@H](CO)NC(=O)[C@H](CC(C)C)NC(=O)[C@H](C)NC(=O)[C@H](CC(=O)O)NC(=O)[C@H](CC(C)C)NC(=O)[C@H](CC(C)C)NC(=O)CN)C(=O)N[C@@H](CC(C)C)C(=O)NCC(=O)N[C@@H](CC(C)C)C(N)=O` [GLLDALSGILGL], which MIC (Micrococcus luteus) is on record?
**A.** 21.9 µM (≈ 25 µg/mL)

**Q.** For `CC(C)[C@H](NC(=O)CNC(=O)[C@@H](N)Cc1cnc[nH]1)C(=O)N[C@@H](CO)C(=O)NCC(=O)N[C@@H](Cc1cnc[nH]1)C(=O)NCC(=O)N[C@@H](CCC(N)=O)C(=O)N[C@@H](Cc1cnc[nH]1)C(=O)NCC(=O)N[C@H](C(=O)N[C@@H](Cc1cnc[nH]1)C(=O)NCC(=O)O)[C@@H](C)O` [HGVSGHGQHGTHG], which MIC [8] is on record?
**A.** 12.6 µM (≈ 16 µg/mL)

**Q.** What about the MIC (Pseudomonas aeruginosa) of the same compound?
**A.** 12.6 µM (≈ 16 µg/mL)

**Q.** What about the MIC (Staphylococcus aureus) of the same compound?
**A.** 12.6 µM (≈ 16 µg/mL)

**Q.** What about the MIC [9] of the same compound?
**A.** 6.31 µM (≈ 8 µg/mL)

**Q.** What about the MIC [1] of the same compound?
**A.** 6.31 µM (≈ 8 µg/mL)

**Q.** What about the MIC [10] of the same compound?
**A.** 6.31 µM (≈ 8 µg/mL)

**Q.** And the MIC (Escherichia coli)?
**A.** 6.31 µM (≈ 8 µg/mL)

**Q.** And the MIC [2]?
**A.** 3.16 µM (≈ 4 µg/mL)

**Q.** What about the MIC (Klebsiella pneumoniae) of the same compound?
**A.** 6.31 µM (≈ 8 µg/mL)

**Q.** How did the MIC [3] turn out when `CC[C@H](C)[C@H](NC(=O)[C@H](Cc1ccc(O)cc1)NC(=O)[C@H](CCCCN)NC(=O)[C@H](CCCCN)NC(=O)[C@H](CC(C)C)NC(=O)[C@H](CC(C)C)NC(=O)[C@H](CCCCN)NC(=O)[C@H](CCCCN)NC(=O)[C@@H](NC(=O)[C@H](CC(C)C)NC(=O)[C@@H](N)CCCCN)C(C)C)C(=O)N[C@H](C(=O)N[C@@H](Cc1ccccc1)C(=O)O)[C@@H](C)O` [KLVKKLLKKYITF] was run?
**A.** 4 µM (≈ 6.49 µg/mL)

**Q.** And the MIC [1]?
**A.** > 64 µM

**Q.** And the MIC [11]?
**A.** > 64 µM

**Q.** And the MIC (Acinetobacter baumannii)?
**A.** ≥ 64 µM

**Q.** And the MIC [2]?
**A.** > 64 µM

**Q.** `C[C@H](NC(=O)[C@H](Cc1c[nH]c2ccccc12)NC(=O)[C@H](CCCCN)NC(=O)[C@H](CCCN=C(N)N)NC(=O)CNC(=O)[C@H](Cc1c[nH]c2ccccc12)NC(=O)[C@H](CCCN=C(N)N)NC(=O)[C@H](CCCN=C(N)N)NC(=O)[C@H](Cc1c[nH]c2ccccc12)NC(=O)CNC(=O)[C@@H](N)CCCN=C(N)N)C(=O)N[C@@H](Cc1cnc[nH]1)C(=O)NCC(=O)N[C@@H](Cc1c[nH]c2ccccc12)C(=O)N[C@@H](CCCCN)C(=O)N[C@@H](CCCCN)C(=O)N[C@@H](Cc1ccc(O)cc1)C(=O)NCC(N)=O` [RGWRRWGRKWAHGWKKYG] was tested. Which MIC [12] did it give?
**A.** 4 µM (≈ 9.48 µg/mL)

**Q.** And the MIC [13]?
**A.** 8 µM (≈ 19 µg/mL)

**Q.** And the MIC [14]?
**A.** 2 µM (≈ 4.74 µg/mL)

**Q.** And the MIC [15]?
**A.** 4 µM (≈ 9.48 µg/mL)

**Q.** What about the MIC [16] of the same compound?
**A.** 2 µM (≈ 4.74 µg/mL)

**Q.** With `CC(C)C[C@H](NC(=O)[C@@H]1CCCN1C(=O)[C@H](CCCCN)NC(=O)[C@@H]1CCCN1C(=O)[C@H](Cc1ccc(O)cc1)NC(=O)[C@H](CCCCN)NC(=O)[C@H](Cc1c[nH]c2ccccc12)NC(=O)[C@@H](N)CCCN=C(N)N)C(=O)N[C@@H](CCCCN)C(=O)N[C@@H](CCCN=C(N)N)C(=O)O` [RWKYPKPLKR] as the compound, how does the MIC [1] read?
**A.** > 72.9 µM

**Q.** And the MIC [17]?
**A.** 27.3 µM (≈ 37.5 µg/mL)

**Q.** And the MIC [18]?
**A.** 54.7 µM (≈ 75 µg/mL)

**Q.** What about the MIC [2] of the same compound?
**A.** 54.7 µM (≈ 75 µg/mL)

**Q.** Which results are given for `C[C@H](NC(=O)[C@@H]1CCCN1C(=O)[C@H](CCCN=C(N)N)NC(=O)[C@H](Cc1ccc(O)cc1)NC(=O)CNC(=O)[C@H](CC(N)=O)NC(=O)[C@@H](N)CO)C(=O)N[C@@H](Cc1ccc(O)cc1)C(=O)N[C@@H](CCCN=C(N)N)C(=O)N1CCC[C@H]1C(=O)N[C@@H](C)C(=O)N[C@@H](Cc1ccc(O)cc1)C(=O)N[C@@H](CCCN=C(N)N)C(=O)N1CCC[C@H]1C(=O)N[C@@H](CO)C(=O)N[C@@H](Cc1ccc(O)cc1)C(=O)N[C@@H](CCCN=C(N)N)C(=O)N1CCC[C@H]1C(N)=O` [SNGYRPAYRPAYRPSYRP]?
**A.** MIC (Staphylococcus aureus): > 32 µM; MIC [6]: 32 µM (≈ 69.5 µg/mL); MIC (Escherichia coli): > 32 µM; MIC [7]: > 32 µM; MIC (Acinetobacter baumannii): ≥ 32 µM; MIC [2]: 32 µM (≈ 69.5 µg/mL)
